Test results taken from patent US20070167492A1, “Molluscicidal agents” (priority 2003, published 2007).

Experiments:
Assay type in all cases: in vivo
[1] = test system: Winter wheat (Kampa race) seeds; experiment: Seed germination test of treated winter wheat seeds (rolled in paper); conditions: 3x50 seeds, 6 days at 22° C.
Summary of the method: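 Seeds were disinfected with fludioxonil-containing Beret Gold (2 ml per kg seed) and coated with Sepiret® for formulations unsuitable for coating. Germination of 3×50 seeds rolled in paper was scored after 6 days at continuous 22° C. under a 16 hours light regime.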

[2] = test system: Deroceras reticulatum (grey field slug); experiment: Example 2: pot re-test, treated winter wheat seed with 5 adult slugs per pot, 7 days
From the text: Based on the results of the experiment described in Example 1, a selection was made from the various test numbers of that experiment for re-testing, partly to confirm the conclusions of that experiment and to test the unexpected outcome of some test compounds.
The selection of test numbers (Test No.) used in the present experiment relative to those of the experiment described in Example 1 is shown in Table 7.
The same seeds as described in Example 1 were sown in earthenware pots with an internal diameter of 20 cm and a height of 18 cm, filled with 7 cm of potting soil (Trio BV, Weesp, The Netherlands) and with a top 2 cm of white quartz sand. A total of 40 winter wheat seeds was placed in each pot, in a pattern of concentric circles on top of the quartz sand, the germ of the seed facing upwards. To each pot a total of 5 adult specimens of the test slug Deroceras reticulatum (grey field slug) were added. The pots were incubated at 18-19° C. with a relative humidity of ±95% and light regime of ±18 hours light/6 hours dark, without artificial lighting. The pots were not irrigated overhead. In total, 4 parallel tests were performed for each test.
The number of damaged seeds was, the number of plants present (germinated and not eaten or damaged by the slugs), the number of dead slugs and of the number of fecal pellets were determined after 2, 3 and 7 days following the addition of the slugs.
The data were statistically analysed by using F-tests (α=0.05) and pair-wise Student-tests.

[3] = test system: Deroceras reticulatum (grey field slug); experiment: Example 1: pot test, treated winter wheat seed with 5 adult slugs per pot, 14 days
Summary of the method: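 Fludioxonil-disinfected winter wheat seed (Kampa, 40 per pot) sown on quartz sand over potting soil with 5 adult slugs per pot; ±15° C., ±90% RH, 12 h light/12 h dark, 4 replicates. Damaged seeds, plants, dead slugs and fecal pellets counted up to day 14; F-tests and Student-tests.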

[4] = Example 2, 10 ml formulated per kg seed, 2 days after sowing
[5] = Example 2, 10 ml formulated per kg seed, 3 days after sowing
[6] = Example 2, 10 ml formulated per kg seed, 7 days after sowing
[7] = 2 ml formulated per kg seed, 2 days after sowing
[8] = 2 ml formulated per kg seed, 3 days after sowing
[9] = 2 ml formulated per kg seed, 7 days after sowing
[10] = 2 ml formulated per kg seed, 10 days after sowing
[11] = 2 ml formulated per kg seed, 14 days after sowing
[12] = 10 ml formulated per kg seed, 2 days after sowing
[13] = 10 ml formulated per kg seed, 3 days after sowing
[14] = 10 ml formulated per kg seed, 7 days after sowing
[15] = 10 ml formulated per kg seed, 10 days after sowing
[16] = 10 ml formulated per kg seed, 14 days after sowing

## abamectine
[1]; 2 ml formulated per kg seed
  Percentage germinated: 47%
[1]; 10 ml formulated per kg seed
  Percentage germinated: 2%
[2]; Example 2
  number of plants present relative to untreated: no significantly different results
  phytotoxic effect on the seeds: phytotoxic effect on the seeds
  result of seed treatment against slugs (conclusion): does not give the desired effect
[2]; Example 2, 10 ml formulated per kg seed
  percentage of damaged seeds after 7 days: 31%
[2]; [4]
  Mean number of damaged seeds per pot: 2.8
  Mean number of dead slugs per pot: 0
[2]; [5]
  Mean number of damaged seeds per pot: 6.0
  Mean number of dead slugs per pot: 0.3
[2]; [6]
  Mean number of damaged seeds per pot: 12.5
  Mean number of dead slugs per pot: 0.8
[2]; Example 2, two days after the start
  number of damaged seeds relative to the untreated seed: significant reduction in the number of damaged seeds
[2]; dosage 10 ml, 2 days
  Mean number of fecal pellets per pot: 11
  Mean number of plants present per pot: 0.3
[2]; dosage 10 ml, 3 days
  Mean number of fecal pellets per pot: 30
  Mean number of plants present per pot: 1.3
[2]; dosage 10 ml, 7 days
  Mean number of fecal pellets per pot: 69
  Mean number of plants present per pot: 4.5
  number of utilizable plants after 7 days: 2.0
[3]; 2 ml formulated per kg seed
  number of utilizable plants after 14 days: 0.8
  percentage of damaged seeds after 14 days: 93%
[3]; [7]
  Mean number of damaged seeds per pot: 3.8
  Mean number of dead slugs per pot: 0
[3]; [8]
  Mean number fecal pellets per pot: 43
  Mean number of damaged seeds per pot: 14.3
  Mean number of dead slugs per pot: 0
  Mean number of plants present per pot: 6.3
[3]; [9]
  Mean number fecal pellets per pot: 119
  Mean number of damaged seeds per pot: 35.8
  Mean number of dead slugs per pot: 0
  Mean number of plants present per pot: 0
[3]; [10]
  Mean number fecal pellets per pot: 133
  Mean number of damaged seeds per pot: 35.5
  Mean number of dead slugs per pot: 0.3
  Mean number of plants present per pot: 0.8
[3]; [11]
  Mean number fecal pellets per pot: 140
  Mean number of damaged seeds per pot: 37.0
  Mean number of dead slugs per pot: 0.3
  Mean number of plants present per pot: 0.8
[3]; 10 ml formulated per kg seed
  number of utilizable plants after 14 days: 9.0
  percentage of damaged seeds after 14 days: 61%
[3]; [12]
  Mean number of damaged seeds per pot: 1.5
  Mean number of dead slugs per pot: 0.3
[3]; [13]
  Mean number fecal pellets per pot: 15
  Mean number of damaged seeds per pot: 3.3
  Mean number of dead slugs per pot: 0.5
  Mean number of plants present per pot: 3.8
[3]; [14]
  Mean number fecal pellets per pot: 89
  Mean number of damaged seeds per pot: 21.0
  Mean number of dead slugs per pot: 1.3
  Mean number of plants present per pot: 6.0
[3]; [15]
  Mean number fecal pellets per pot: 106
  Mean number of damaged seeds per pot: 23.8
  Mean number of dead slugs per pot: 1.3
  Mean number of plants present per pot: 8.8
[3]; [16]
  Mean number fecal pellets per pot: 114
  Mean number of damaged seeds per pot: 24.3
  Mean number of dead slugs per pot: 1.5
  Mean number of plants present per pot: 9.0
[3]; Example 1, 10 ml/kg, after 3, 7 and 14 days
  damaged seeds relative to the untreated control: significantly less damaged seeds
[3]; Example 1, winter wheat seed treatment, dosages tested
  protection / slug controlling effect (conclusion): no sufficient protection to the plants
